# Reference: patent EP1762239A1, “Lofexidine for intraspinal administration” (Texcontor Etablissement, priority 2005, dated 2007)
# Values joined by “and” are separate entries in the source; they are usually repeats but may differ in a detail not shown here. Equal entries are not always repeated. Structures can show the parent of a compound that is named as a salt.
# Experiments:
# [1] = systemically (e.g. orally or by intravenous injection), especially at high doses (e.g. >600 µg per day); cited from earlier work
# [2] = Brief observation of general behavior after intrathecal injection; assay type: in vivo, Wistar rats; settings: 0.00032 mg/rat and 0.0032 mg/rat (ITH)
# Experimental: Evaluation for pain was performed at 24 hours postoperatively between 08:00 and 16:00h. Each animal was monitored at 15, 30, 60 and 120 minutes after intrathecal administration of lofexidine.HCl. The rats were placed under inverted plexiglas cages on a wire mesh rack and a brief observation of general behavior post-injection was made. The rigid tip part of the Electronic Von Frey Aesthesiometer was applied perpendicularly from underneath the mesh floor to the four points around the wound surface of the animal with slow upward force against the paw. A positive response to tactile pressure was recorded if the paw was sharply withdrawn; ambulation was considered an ambiguous response, and in such cases, the stimulus was reapplied. Mean values from 4 points for each rat and from 5 rats in each group were calculated. Percent inhibition due to treatment relative to pre-treatment pain response was calculated according to the formula: Tactile Pressure [(Post-Treatment) - (Pre-Treatment)]/[(Pre-Incision) - (Pre-Treatment)] x 100%. Inhibition by 50% or more (≥50%) is considered significant analgesic effect. Unpaired Student's t test is applied for comparison of the % inhibition values between test substance-and vehicle-treated groups. Significance is considered at P<0.05 level
# [3] = test system: rat model of neuropathic pain; assay: Nerve ligation-induced chronic (neuropathic) pain model, mechanical allodynia by electronic von Frey; assay type: in vivo, Wistar rats; settings: for Tactile Pressure (g) Post-Treatment Average / Tactile Pressure (g) Δ Treatment Average: group of 5; for Tactile Pressure (g) Post-Treatment / Tactile Pressure (g) Δ Treatment: individual animal; for Inhibition (%): Δ Treatment/Δ Blank x 100%
# Experimental: Lofexidine was evaluated for possible analgesic activity in neuropathic pain using a nerve ligation-induced chronic pain model in rats. Lofexidine HCl was administered intrathecally (ITH) at 3.2 and 10 µg/animal and analgesia was measured at 15, 30, 60 and 120 minutes post-dosing using an Electronic Von Frey Aesthesiometer (IITC, USA) with a #12 supertip. A 50 % or greater (≥50%) inhibition relative to blank indicates possible analgesic activity. Lofexidine HCl at doses of 3.2 and 10 µg/animal were administered intrathecally. Sterile Saline (obtained from Sintong Biotech Company, Taiwan) was used as vehicle and dosing volume was 10 µl/animal. Male Wistar rats provided by Biolasco Taiwan (under a Charles River Laboratories Technology Licensee) were used. Space allocation for 6 animals was 45 x 23 x 21 cm. Animals were housed in APEC^R cages and maintained in a controlled temperature (22-23°C) and humidity (60-70%) environment with 12 hours light dark cycles for at least one week in MDS Pharma Services - Taiwan Laboratory prior to use. Free access to standard lab chow for rats (Lab Diet, Rodent Diet, PMI Nutrition International, USA) and tap water was granted. All aspects of this work including housing, experimentation and disposal of animals were performed in general accordance with the Guide for the Care and Use of Laboratory Animals (National Academy Press, Washington, D. C, 1996). Male Wistar rats weighing 160 to 200 g were used. Under pentobarbital (50 mg/kg, 5 ml/kg, i.p.) anesthesia, the sciatic nerve was exposed at mid-thigh level. Three ligatures (4-0 silk suture), about 1 mm apart, were loosely tied around th e nerve. The animals were then housed individually in cages with soft bedding for 7 days before testing for mechanical allodynia. On the test day, rats were placed under inverted plexiglas cages on a wire mesh rack and allowed to acclimatise for 20 to 30 minutes. Allodynia was evaluated by responsiveness to a #12 Supertip® (IITC, USA) applied beneath the mesh floor perpendicular to the central plantar surface of the left hind paw. The tip was gradually applied with sufficient force to cause slight buckling of the filament against the paw. A positive response to the applied tactile pressure, noted by sharp withdrawal of the paw, was recorded automatically by an Electronic Von Frey Aesthesiometer (2290CE Electrovonfrey®, IITC, USA). The endpoint is the withdrawal threshold (gm) to von Frey filament, serving as a measure of analgesic activity. Rats were pre-selected (for presence of allodynia) for experimentation only if the withdrawal threshold 7 days after nerve ligation (pre-treatment) was reduced by 10 grams of force relative to the response of the individual paw before nerve ligation (pre-ligation). Test substance or vehicle was administered intrathecally (3.2 µg and 10 µg/animal) to groups of 5 animals and the level of allodynia was again determined (at 15, 30, 60 and 120 minutes post-treatment). Allodynia is calculated as follows: % Inhibition=Δ Treatment/Δ Blank x 100%; where Δ Treatment is Tactile Pressure [(Post-Treatment) -(Pre-Treatment)] and Δ Blank is Tactile Pressure [(Pre-Ligation) - (Pre-Treatment)]. A 50 percent or greater (≥50%) inhibition relative to blank indicates possible analgesic activity.
# [4] = 3.2 µg/animal ITH, 120 Minutes, listed as Lofexidine HCI
# [5] = 10 µg/animal ITH, 120 Minutes, listed as Lofexidine HCI
smiles,measurement,setting,value
CC(Oc1c(Cl)cccc1Cl)C1=NCCN1 (centres unmarked) [Lofexidine HCl],common symptoms associated with use,[1],"drowsiness, sedation and blood pressure and heart rate increases"
same,behavioral changes in treated animals,[2],did not cause behavioral changes
same,gait after intrathecal injection,[2]; all treated animals,normal gait
same,analgesic activity,[3]; 3.2 µg/animal,low levels of analgesic activity
same,Tactile Pressure (g) Post-Treatment Average,"[3]; 3.2 µg/animal ITH, 15 Minutes",12.5 g
same,Tactile Pressure (g) Δ Treatment Average,"[3]; 3.2 µg/animal ITH, 15 Minutes, Δ Blank 30.2",1.3 g
same,Tactile Pressure (g) Post-Treatment,"[3]; 3.2 µg/animal ITH, 15 Minutes",8.9 g and 5.8 g and 23.3 g and 13.4 g and 10.9 g
same,Tactile Pressure (g) Δ Treatment,"[3]; 3.2 µg/animal ITH, 15 Minutes",-1.8 g and -5.2 g and 8.5 g and 6.3 g and -1.1 g
same,Inhibition (%),"[3]; 3.2 µg/animal ITH, 15 Minutes",4%
same,Tactile Pressure (g) Post-Treatment Average,"[3]; 3.2 µg/animal ITH, 30 Minutes",10.1 g
same,Tactile Pressure (g) Δ Treatment Average,"[3]; 3.2 µg/animal ITH, 30 Minutes, Δ Blank 30.2",-1.1 g
same,Tactile Pressure (g) Post-Treatment,"[3]; 3.2 µg/animal ITH, 30 Minutes",7.4 g and 14.2 g and 8.5 g and 10.0 g and 10.2 g
same,Tactile Pressure (g) Δ Treatment,"[3]; 3.2 µg/animal ITH, 30 Minutes",-3.8 g and -0.6 g and 1.4 g and -2.0 g and -0.5 g
same,Inhibition (%),"[3]; 3.2 µg/animal ITH, 30 Minutes",-4%
same,Tactile Pressure (g) Post-Treatment Average,"[3]; 3.2 µg/animal ITH, 60 Minutes",9.3 g
same,Tactile Pressure (g) Δ Treatment Average,"[3]; 3.2 µg/animal ITH, 60 Minutes, Δ Blank 30.2",-1.8 g
same,Tactile Pressure (g) Post-Treatment,"[3]; 3.2 µg/animal ITH, 60 Minutes",7.5 g and 12.7 g and 11.3 g and 6.5 g and 8.7 g
same,Tactile Pressure (g) Δ Treatment,"[3]; 3.2 µg/animal ITH, 60 Minutes",-3.7 g and -2.1 g and 4.2 g and -5.5 g and -2.0 g
same,Inhibition (%),"[3]; 3.2 µg/animal ITH, 60 Minutes",-6%
same,Tactile Pressure (g) Post-Treatment Average,"[3]; 3.2 µg/animal ITH, 120 Minutes",9.2 g
same,Tactile Pressure (g) Δ Treatment Average,"[3]; 3.2 µg/animal ITH, 120 Minutes, Δ Blank 30.2",-2.0 g
same,Tactile Pressure (g) Post-Treatment,[3]; [4],6.1 g and 12.4 g and 7.9 g and 10.8 g and 8.6 g
same,Tactile Pressure (g) Δ Treatment,[3]; [4],-5.1 g and -2.4 g and 0.8 g and -1.2 g and -2.1 g
same,Inhibition (%),"[3]; 3.2 µg/animal ITH, 120 Minutes",-7%
same,Tactile Pressure (g) Post-Treatment Average,"[3]; 10 µg/animal ITH, 15 Minutes",23.3 g
same,Tactile Pressure (g) Δ Treatment Average,"[3]; 10 µg/animal ITH, 15 Minutes, Δ Blank 27.9",13.0 g
same,Tactile Pressure (g) Post-Treatment,"[3]; 10 µg/animal ITH, 15 Minutes",>36.8 g and 12.4 g and 17.2 g and 26.7 g and 23.6 g
same,Tactile Pressure (g) Δ Treatment,"[3]; 10 µg/animal ITH, 15 Minutes",24.7 g and 1.5 g and 11.0 g and 15.7 g and 12.3 g
same,Inhibition (%),"[3]; 10 µg/animal ITH, 15 Minutes",47%
same,Tactile Pressure (g) Post-Treatment Average,"[3]; 10 µg/animal ITH, 30 Minutes",26.4 g
same,Tactile Pressure (g) Δ Treatment Average,"[3]; 10 µg/animal ITH, 30 Minutes, Δ Blank 27.9",16.1 g
same,Tactile Pressure (g) Post-Treatment,"[3]; 10 µg/animal ITH, 30 Minutes",42.6 g and 7.0 g and >31.5 g and >35.5 g and 15.6 g
same,Tactile Pressure (g) Δ Treatment,"[3]; 10 µg/animal ITH, 30 Minutes",30.5 g and -3.9 g and 25.3 g and 24.5 g and 4.3 g
same,Inhibition (%),"[3]; 10 µg/animal ITH, 30 Minutes",58%
same,Tactile Pressure (g) Post-Treatment Average,"[3]; 10 µg/animal ITH, 60 Minutes",20.8 g
same,Tactile Pressure (g) Δ Treatment Average,"[3]; 10 µg/animal ITH, 60 Minutes, Δ Blank 27.9",10.5 g
same,Tactile Pressure (g) Post-Treatment,"[3]; 10 µg/animal ITH, 60 Minutes",20.5 g and 15.1 g and 36.5 g and 23.2 g and 8.9 g
same,Tactile Pressure (g) Δ Treatment,"[3]; 10 µg/animal ITH, 60 Minutes",8.4 g and 4.2 g and 30.3 g and 12.2 g and -2.4 g
same,Inhibition (%),"[3]; 10 µg/animal ITH, 60 Minutes",38%
same,Tactile Pressure (g) Post-Treatment Average,"[3]; 10 µg/animal ITH, 120 Minutes",11.0 g
same,Tactile Pressure (g) Δ Treatment Average,"[3]; 10 µg/animal ITH, 120 Minutes, Δ Blank 27.9",0.6 g
same,Tactile Pressure (g) Post-Treatment,[3]; [5],13.5 g and 10.8 g and 11.8 g and 12.3 g and 6.4 g
same,Tactile Pressure (g) Δ Treatment,[3]; [5],1.4 g and -0.1 g and 5.2 g and 1.3 g and -4.9 g
same,Inhibition (%),"[3]; 10 µg/animal ITH, 120 Minutes",2%
same,"peak of analgesic activity, time post-dosing",[3]; 10 µg/animal intrathecal,30 min
same,analgesic activity,"[3]; 10 µg/animal intrathecal, 30 minutes post-injection",significant analgesic activity
same,analgesic activity,"[3]; 10 µg/animal intrathecal, 120 minutes post-dosing",no longer evident
